From patent publication US5690906A (The Trustees of the University of Pennsylvania, priority 1995, dated 1997)
Read-outs that look alike come from different tables or passages of the source. One block for each molecule: values may come before it.

Assays:
[1] = Stability of the radiolabelled product on storage (HPLC); format: physicochemical
Protocol: Hydrogen peroxide ([…]) was added to a mixture of […] (1mg/ml EtOH), […] and I-125 (2-3 mCi) in a sealed vial. The reaction was allowed to proceed for 20 min at room temperature, and was then terminated by addition of 0.1 ml of sodium bisulfite (300 mg/ml). The reaction mixture was extracted with ethyl acetate (3×1 ml) after neutralization with saturated NaHCO3 solution. The extracted ethyl acetate layers were evaporated to dryness, and the remaining residue was dissolved in EtOH and purified by HPLC using a reverse phase column (PRP-1 column, Hamilton Co., Reno, Nev.) eluted with an isocratic solvent of 80% acetonitrile-20% pH 7.0 buffer (5 mM 3,3'-dimethylglutaric acid). The fractions containing the desired product were collected, condensed and re-extracted with ethyl acetate (3×1 ml). The no-carrier-added final product (purity >98%) was evaporated to dryness and redissolved in […] with 100 mg ascorbic acid added as an anti-oxidant.
No-carrier-added [^125 I ]trans-8-OH-PIPAT(^125 I]8) was prepared by an iododestannylation reaction similar to the procedure reported previously (Acta. Chim. Scan., 1988, B42, 231-236). Hydrogen peroxide (50 μl 3% w/v) was added to a mixture of 50 μl of tributyltin precursor, 11 (11 mg/ml EtOH), 50 μl of 1N HCl and I-125 (2-3 mCi) in a sealed vial. The reaction was allowed to proceed for 20 minutes at room temperature, and was then terminated by addition of 0.1 ml of sodium bisulfite (300 mg/ml). The reaction mixture was extracted with ethyl acetate (3×1 ml) after neutralization with saturated NaHCO3 solution. The extracted ethyl acetate layers were evaporated to dryness, and the remaining residue was dissolved in EtOH and purified by HPCL using a reverse phase column (PRP-1 column, Hamilton Co., Reno, Nev.) eluted with an isocratic solvent of 80% acetonitrile-20% pH 7.0 buffer (5 mM 3,3'-dimethylglutaric acid); the retention time was 9 minutes (1 ml/min). The fractions containing the desired product were collected, condensed and re-extracted with ethyl acetate (3×1 ml). The final product of no-carrier-added (purity>98%) was evaporated to dryness and redissolved in 100 μl of 50% EtOH with 100 μg of ascorbic acid added as an anti-oxidant. The final product [^125 I] trans-8-OH-PIPAT(^125 I]8) was stored at -20° C.

[2] = molecular target: D3 receptors (expressed in Sf9 cells) (Rattus norvegicus, UniProt P19020); details: for Hill Co.: Table 3, [^125 I]trans-7-OH-PIPAT competition; for Hill Co. / Ki: 37° C., 120 mM NaCl; for Ki: ± SE, [^125 I]trans-7-OH-PIPAT 0.1-0.2 nM; for affinity for the D3 receptor: competition with [^125 I]trans-7-OH-PIPAT
Protocol: Plasmid DNA was isolated by alkaline dialysis and purified by CsCl density gradient centrifugation and overnight dialysis for transfection of Sf9 cells. […] A monolayer of Sf9 cells (approximately 2×10^6 cells/T25 plate) was cotransfected by calcium phosphate precipitation, with 1 mg of AcMNPV DNA (provided by Dr. Max Summers, Texas A&M University, College Station, Tex.) and 2 mg of recombinant transfer vector DNA. […] Putative recombinant viral plaques were chosen by visual screening for occlusion-negative plaques and used to infect 1×10^6 Sf9 cells in a 6-well plate (CoStar, Cambridge, Mass.). Four days after infection, cells were harvested and membranes were prepared. An aliquot of membranes was used for radioligand binding. […] The membrane homogenates of AcMNPVrD3 infected Sf9 cells were prepared as described. Briefly, the harvested cells were centrifuged, resuspended and homogenized in buffer containing 50 mM Tris, pH7.4, 150mM NaCl, 10 mM EDTA and a mixture of protease inhibitors (1 mg/ml aprotinin, 1 mg/ml leupeptin, 1 mg/ml soybean trypsin inhibitor, 10 mg/ml PMSF). The final pellets obtained were resuspended in the same buffer and kept at -20° C. for radioligand binding assays.
Binding assays were performed in glass tubes (12×75 mm) in a final volume of 0.2 ml. The buffer used for the dilution contained 50 mM Tris, pH 7.4, and the protease inhibitors mixture. […] The competition experiments were performed in the presence of 120 mM NaCl. […] After incubation for 30 min at 37° C. or 90 min at 25° C., the bound ligand was separated from the free ligand by filtration through glass fiber filters No. 25 (Schleicher & Schuell, Keene, N.H.) soaked with 0.2% protamine free base. The filters were then washed twice with 4 ml of ice-cold buffer (containing 50 mM Tris-HCl, pH 7.4) and the radioactivity on the filters was counted in a gamma counter (Packard 5000) with 70% efficiency.

dopamine D2S receptor = experiment: Specific binding of [^125 I]trans-7-OH-PIPAT to D2S receptors expressed in Sf9 cells; set-up: species or system rat; details: data not shown
dopamine D2L receptor = experiment: Specific binding of [^125 I]trans-7-OH-PIPAT to D2L receptors expressed in Sf9 cells; set-up: species or system rat; details: data not shown
5-HT1A receptor = molecular target: T1, 5-HT1A receptor (Rattus norvegicus, UniProt P19327); experiment: Inhibition of [^3 H]-8-OH-DPAT binding to rat hippocampal membrane homogenates; details: for Ki: against [^3 H]-8-OH-DPAT, rat hippocampus membranes, read-out: K1 (inhibition constant)
T1 construct: from tissue; host or cells: rat hippocampus membrane homogenates
T1 sequence (P19327 1-422): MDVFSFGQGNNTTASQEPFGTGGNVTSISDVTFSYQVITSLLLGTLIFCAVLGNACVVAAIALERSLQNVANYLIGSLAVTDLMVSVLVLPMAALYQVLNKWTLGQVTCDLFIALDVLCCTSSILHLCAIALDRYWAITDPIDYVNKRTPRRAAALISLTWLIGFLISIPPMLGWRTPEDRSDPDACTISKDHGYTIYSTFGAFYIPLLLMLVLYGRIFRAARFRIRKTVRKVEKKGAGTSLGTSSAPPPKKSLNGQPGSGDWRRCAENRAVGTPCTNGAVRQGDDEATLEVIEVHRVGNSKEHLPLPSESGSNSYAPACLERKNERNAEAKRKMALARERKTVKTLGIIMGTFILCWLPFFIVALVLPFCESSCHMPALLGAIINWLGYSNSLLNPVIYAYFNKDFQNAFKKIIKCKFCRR
Protocol: The hippocampal homogenates were prepared in 100 volumes of ice-cold Tris-HCl buffer (50mM, pH 7.4) and centrifuged at 20,000 g for 20 minutes. […] The final pellets were resuspended in the Tris-buffer containing 2mM of MgCl2. […] The tubes were incubated at 37° C. for fifteen minutes and then terminated by vacuum filtration through glass filters (Schleicher & Schuell, No. 25, Keene, N.H.) soaked with 1% polyethylimine. […] Both Scatchard and competition experiments were analyzed using the iterative least-squarecurve fitting program LIGAND.

D3 dopamine receptor = molecular target: T2, D3 dopamine receptor (Rattus norvegicus, UniProt P19020); experiment: Inhibition of [^125 I]NCQ298 binding to D3 dopamine receptors expressed in Sf9 cells; details: for HC D3: Table 4, Hill coefficient; for Ratio D2/D3: Ki(D2)/Ki(D3)
T2 construct: made in house; host or cells: Sf9 insect cells infected with recombinant baculovirus AcMNPVrD3, membrane homogenates
Protocol: The construction of pVL1393-rD3 was previously described. […] An aliquot of membranes was used for radioligand binding.
Membranes from AcMNPV-rD3 infected Sf9 cells were prepared. […] Assays were incubated at 37° C. for 20 min. then filtered and washed as described above.

D2 dopamine receptor = molecular target: T3, D2 dopamine receptor (Rattus norvegicus, UniProt P61169); experiment: Inhibition of [^125 I]NCQ298 binding to D2 dopamine receptors expressed in Sf9 cells; details: for HC D2: Table 4, Hill coefficient
T3 construct: made in house; host or cells: Sf9 insect cells infected with recombinant baculovirus (AcMNPVrD2L or AcMNPVrD2S), membrane homogenates

[3] = Table 4 and its discussion, [^125 I]-NCQ298 0.05 nM, 37° C., 20 min, read-out: Ki D2
[4] = Table 4 and its discussion, [^125 I]-NCQ298 0.1 nM, 37° C., 20 min, read-out: Ki D3

T3 sequence (P61169 whole entry): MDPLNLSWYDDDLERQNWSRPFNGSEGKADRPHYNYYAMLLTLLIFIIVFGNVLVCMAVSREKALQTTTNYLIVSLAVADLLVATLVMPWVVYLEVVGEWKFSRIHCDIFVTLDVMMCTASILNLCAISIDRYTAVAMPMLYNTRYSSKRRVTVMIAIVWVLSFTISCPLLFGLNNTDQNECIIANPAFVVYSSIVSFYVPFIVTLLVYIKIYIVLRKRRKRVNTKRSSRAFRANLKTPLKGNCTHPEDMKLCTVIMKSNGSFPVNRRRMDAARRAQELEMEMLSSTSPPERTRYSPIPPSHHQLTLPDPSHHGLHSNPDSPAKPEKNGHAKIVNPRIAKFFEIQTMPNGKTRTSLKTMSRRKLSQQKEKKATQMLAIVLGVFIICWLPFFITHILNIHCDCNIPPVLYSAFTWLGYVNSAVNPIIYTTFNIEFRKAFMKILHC
Sequence of D3 receptors (expressed in Sf9 cells) (P19020 whole entry): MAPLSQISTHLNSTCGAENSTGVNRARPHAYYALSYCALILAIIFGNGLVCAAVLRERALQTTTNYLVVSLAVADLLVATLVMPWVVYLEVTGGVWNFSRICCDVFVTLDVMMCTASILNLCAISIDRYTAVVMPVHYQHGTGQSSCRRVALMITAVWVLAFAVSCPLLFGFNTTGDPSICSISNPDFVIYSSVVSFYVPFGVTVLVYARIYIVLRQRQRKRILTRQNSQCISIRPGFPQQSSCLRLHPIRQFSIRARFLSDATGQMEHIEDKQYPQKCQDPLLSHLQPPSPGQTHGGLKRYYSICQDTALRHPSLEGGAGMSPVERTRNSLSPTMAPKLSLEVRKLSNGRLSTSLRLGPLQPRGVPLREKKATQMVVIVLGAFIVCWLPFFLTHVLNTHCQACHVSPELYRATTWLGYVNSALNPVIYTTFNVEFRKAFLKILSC
T2 sequence (P19020 whole entry): as above

purity after storage for at least four weeks ([1]; -20° C., analyzed by HPLC, 40320 min): 95%
stability of the product on storage ([1]; stored at -20° C., 50% EtOH with ascorbic acid): stable for at least four weeks
Structure (SMILES): CCCN(C/C=C/[125I])C1CCc2cccc(O)c2C1 (stereo not drawn) [[^125 I] trans-8-OH-PIPAT]

Structure (SMILES): NCCc1c[nH]c2ccc(O)cc12 [5-HT]
Hill Co. [2]: 0.90
Ki [2]: 2340 ± 420 nM

Structure (SMILES): COC(=O)[C@@H]1[C@H]2C[C@H]3c4[nH]c5ccccc5c4CCN3C[C@@H]2CC[C@@H]1O [Yohimbine]
Hill Co. [2]: 0.97
affinity for the D3 receptor [2]: moderate to low affinity
Ki [2]: 2430 ± 146 nM

Structure (SMILES): CCCN(C/C=C/[125I])C1CCc2ccc(O)cc2C1 (stereo not drawn) [[^125 I]trans-7-OH-PIPAT]
specific binding toward D2S (dopamine D2S receptor): no specific binding
specific binding toward D2L (dopamine D2L receptor): no specific binding
stability of the product on storage [1]: stable for at least four weeks
purity after storage for at least four weeks ([1]; 50% etoh with ascorbic acid, 672 h): > 95%

Structure (SMILES): Oc1cccc2c1CC(NC/C=C/I)CC2 (racemic) [(±)trans-8-OH-IPAT, 8-Hydroxy-2-(N-3'-iodo-2'propenyl)aminotetralin]
Ki (5-HT1A receptor): 10 ± 2 nM

Ki (5-HT1A receptor): 12.6 ± 1.5 nM
Structure (SMILES): CCCN(C/C=C/I)C1CCc2cccc(OC)c2C1 (mixture of isomers) [(±)trans-8-OMe-PIPAT, trans-8-Methoxy-2-[N-propyl-N-(3'-iodo-2'propenyl)]aminotetralin]

Structure (SMILES): CN1CCc2cc(Cl)c(O)cc2[C@@H](c2ccccc2)C1 [SCH23390]
Hill Co. [2]: 0.80
affinity for the D3 receptor [2]: moderate to low affinity

Structure (SMILES): CCCNC1CCc2ccc(O)cc2C1 (centres unmarked) [7-OH-MPAT, 7Hydroxy-2-N-n-Propylaminotetralin]
Ki (D3 dopamine receptor): 3.25 ± 0.45 nM
affinity / selectivity for the D3 receptor (D3 dopamine receptor): comparative affinity as 7-OH-DPAT for D3 receptors
HC D3 (D3 dopamine receptor): 0.80
Ratio D2/D3 (D3 dopamine receptor; Table 4 and its discussion): 191
HC D2 (D2 dopamine receptor): 0.80
Ki (D2 dopamine receptor; [3]): 620 ± 124 nM

Hill Co. [2]: 0.78
Ki [2]: 9.25 ± 2.3 nM
Structure (SMILES): CCN1CCC[C@H]1CNC(=O)c1c(O)c(Cl)cc(Cl)c1OC [Raclopride]

Structure (SMILES): CCCN(CCC)C1CCc2ccc(O)cc2C1 (centres unmarked) [7-OH-DPAT, 7Hydroxy-2-N,N-n-Dipropylaminotetralin, reference compound]
HC D3 (D3 dopamine receptor): 0.85
Hill Co. [2]: 0.87
affinity for the D3 receptor [2]: high affinity
HC D2 (D2 dopamine receptor): 1.02

Ki (5-HT1A receptor): 0.92 ± 0.13 nM
Structure (SMILES): CCCN(C/C=C/I)C1CCc2cccc(O)c2C1 (mixture of isomers) [(±)trans-8-OH-PIPAT, trans-8-Hydroxy-2-[N-propyl-N-(3'-iodo-2'propenyl)] aminotetralin]
affinity / selectivity for 5-HT1A (5-HT1A receptor): unique high affinity and selectivity toward serotonin 5-HT1A sites

Ki (5-HT1A receptor): 17 ± 2.2 nM
Structure (SMILES): COc1cccc2c1CC(NC/C=C/I)CC2 (racemic) [(±)trans-8-OMe-IPAT, 8-Methoxy-2-(N-3'-iodo-2'-propenyl) aminotetralin]

Structure (SMILES): CCCN(CCC)C1CCc2ccc(OC)cc2C1 (centres unmarked) [7-MeO-DPAT, 7Methoxy-2-N,N-n-Dipropylaminotetralin]
Ki (D3 dopamine receptor): 280 ± 36 nM
HC D3 (D3 dopamine receptor): 0.98
Ratio D2/D3 (D3 dopamine receptor; Table 4 and its discussion): 7.7
Ki (D2 dopamine receptor): 2170 ± 216 nM
HC D2 (D2 dopamine receptor): 0.95

Structure (SMILES): CCCN(CCC)C1CCc2cccc(O)c2C1 (racemic) [8-OH-DPAT, 8-hydroxy-2-(di-n-propylamino)tetralin]
Hill Co. [2]: 0.78

HC D3 (D3 dopamine receptor): 0.93
Ratio D2/D3 (D3 dopamine receptor; Table 4 and its discussion): 5.4
Ki (D3 dopamine receptor; [4]): 257 ± 31 nM
HC D2 (D2 dopamine receptor): 1.22
Ki (D2 dopamine receptor; [3]): 1380 ± 193 nM
Structure (SMILES): CCCN(C/C=C/I)C1CCc2ccc(OC)cc2C1 (centres unmarked) [7-MeO-PIPAT, 7Methoxy-2-[N-3'-(1'-Iodo-1'E-Propenyl)-N-n-Propylamino]tetralin]

affinity / selectivity for the D3 receptor (D3 dopamine receptor): lowest affinity for the D3 receptor
HC D3 (D3 dopamine receptor): 1.00
Ratio D2/D3 (D3 dopamine receptor; Table 4 and its discussion): 4.8
Ki (D3 dopamine receptor; [4]): 391 ± 47 nM
HC D2 (D2 dopamine receptor): 0.80
Ki (D2 dopamine receptor; [3]): 1860 ± 261 nM
Structure (SMILES): Oc1ccc2c(c1)CC(NCc1ccccc1)CC2 (centres unmarked) [7-OH-BAT, 7Hydroxy-2-N-n-Benzylaminotetralin]
